Source: ChEMBL document CHEMBL5223190, “Discovery of Bis-sulfonamides as Novel Inhibitors of Mitochondrial NADH-Quinone Oxidoreductase (Complex I)” (ACS Med Chem Lett, 2023)
The source made the active and inactive calls. The calls are words filed in the database; no cut-off is given here.

Key:
[1] = Inhibition of bovine heart NADH oxidase activity using submitochondrial particle as source of enzyme measured after 4 mins; assay type: mitochondria, Bos taurus, Mitochondria
[2] = Inhibition of bovine heart succinate-cytochrome c oxidoreductase activity using submitochondrial particle as source of enzyme measured after 4 mins; assay type: mitochondria, Bos taurus, Mitochondria
Bos taurus = species on record: Bos taurus; assay: Binding affinity to bovine heart NADH-Q1 oxidoreductase (complex 1) oxidase activity using submitochondrial particle as source of enzyme using [125I]-(S)-2-{[(tert-butyldiphenylsilyl)oxy]methyl}-1-{[3-(hexyloxy)propyl]sulfonyl}pyrrolidine by SDS-PAGE analysis; settings: Mitochondria
[3] = Inhibition of bovine heart NADH-Q1 oxidoreductase (complex 1) oxidase activity using submitochondrial particle as source of enzyme measured after 4 mins; assay type: mitochondria, Bos taurus, Mitochondria

Compound	IC50 [1] [µM]	further results
Cc1ccc(S(=O)(=O)N2CCC[C@H]2COCOC[C@@H]2CCCN2S(=O)(=O)c2ccc(C)cc2)cc1	0.89	–
Cc1ccc(S(=O)(=O)N2CCC[C@H]2COCOCc2ccccc2)cc1	4.6	–
CCCCCCCCc1ccc(S(=O)(=O)N2CCC[C@H]2COCOC[C@@H]2CCCN2S(=O)(=O)c2ccc(CCCCCCCC)cc2)cc1	3.4	–
Cc1ccc(S(=O)(=O)N2CCC[C@H]2CO)cc1	> 230	–
Cc1ccc(S(=O)(=O)N2CC[C@H]2COCOC[C@@H]2CCN2S(=O)(=O)c2ccc(C)cc2)cc1	0.87	–
Cc1ccc(S(=O)(=O)N2CCCC[C@H]2COCOC[C@@H]2CCCCN2S(=O)(=O)c2ccc(C)cc2)cc1	2.6	–
Cc1ccc(C(=O)N2CCC[C@H]2COCOC[C@@H]2CCCN2C(=O)c2ccc(C)cc2)cc1	5	–
O=S(=O)(CCCOc1ccccc1)N1CCC[C@H]1COCOC[C@@H]1CCCN1S(=O)(=O)CCCOc1ccccc1	2.4	–
Cc1ccc(S(=O)(=O)N2CC[C@@H](OCO[C@@H]3CCN(S(=O)(=O)c4ccc(C)cc4)C3)C2)cc1	31	–
Cc1ccc(S(=O)(=O)N(C)CCOCOCCN(C)S(=O)(=O)c2ccc(C)cc2)cc1	6.4	–
CCCCCCCc1ccc(S(=O)(=O)N2CCC[C@H]2COCOC[C@@H]2CCCN2S(=O)(=O)c2ccc(CCCCCCC)cc2)cc1	3.6	–
O=S(=O)(c1ccc(Cl)cc1)N1CCC[C@H]1COCOC[C@@H]1CCCN1S(=O)(=O)c1ccc(Cl)cc1	1.1	–
Cc1ccc(S(=O)(=O)N2[C@H](COCOC[C@@H]3C[C@@H]4CCCC[C@@H]4N3S(=O)(=O)c3ccc(C)cc3)C[C@@H]3CCCC[C@@H]32)cc1	5.8	–
Cc1ccc(S(=O)(=O)N2CC[C@@H](COCOC[C@@H]3CCN(S(=O)(=O)c4ccc(C)cc4)C3)C2)cc1	1.3	–
Cc1ccc(S(=O)(=O)N2CCC[C@H]2COCOCCCc2ccccc2)cc1	1.1	–
COc1ccc(S(=O)(=O)N2CCC[C@H]2COCOC[C@@H]2CCCN2S(=O)(=O)c2ccc(OC)cc2)cc1	4.4	–
Cc1ccc(S(=O)(=O)N2CCC[C@@H]2COCOC[C@H]2CCCN2S(=O)(=O)c2ccc(C)cc2)cc1	3.1	–
CCCCCCCCCCCCS(=O)(=O)N1CCC[C@H]1COCOC[C@@H]1CCCN1S(=O)(=O)CCCCCCCCCCCC	6.5	–
COCOC[C@@H]1CCCN1S(=O)(=O)c1ccc(C)cc1	85	–
O=S(=O)(c1ccccc1)N1CCC[C@H]1COCOC[C@@H]1CCCN1S(=O)(=O)c1ccccc1	4.1	–

Stronger by IC50 [1], values ahead:

IC50 [1] [µM]	Compound	further results
0.27	Cc1ccc(OCCCS(=O)(=O)N2CCC[C@H]2COCOC[C@@H]2CCCN2S(=O)(=O)CCCOc2ccc(C)cc2)cc1	–
0.81	Cc1ccc(S(=O)(=O)N2CCC[C@@H]2COCOC[C@@H]2CCCN2S(=O)(=O)c2ccc(C)cc2)cc1	–
0.072	CCCCCCCCCCS(=O)(=O)N1CCC[C@H]1COCOC[C@@H]1CCCN1S(=O)(=O)CCCOc1ccc(C)cc1	–
0.26	CCCCCCOCCCS(=O)(=O)N1CCC[C@H]1COCOC[C@@H]1CCCN1S(=O)(=O)CCCOCCCCCC	–
0.62	Cc1ccc(S(=O)(=O)N2CCC[C@H]2CCOCOCC[C@@H]2CCCN2S(=O)(=O)c2ccc(C)cc2)cc1	–
0.048	CCCCCCCCCCS(=O)(=O)N1CCC[C@H]1COCOC[C@@H]1CCCN1S(=O)(=O)CCCOCCCCCC	–
0.016	CC1(CCCCCCCCS(=O)(=O)N2CCC[C@H]2COCOC[C@@H]2CCCN2S(=O)(=O)CCCOc2ccc(I)cc2)N=N1	–
0.088	CCCCCCCCCCS(=O)(=O)N1CCC[C@H]1COCOC[C@@H]1CCCN1S(=O)(=O)CCCCCCCCCC	–
0.014	O=S(=O)(CCCOc1ccc(I)cc1)N1CCC[C@H]1COCOC[C@@H]1CCCN1S(=O)(=O)CCCOc1ccc(I)cc1	IC50 [2]: > 20 µM; Activity (Bos taurus): Active; IC50 [3]: 0.026 µM
0.15	CCCCCCCCCCS(=O)(=O)N1CCC[C@H]1COCOC[C@@H]1CCCN1S(=O)(=O)CCCOc1ccccc1	–
0.098	CCCCCCc1ccc(S(=O)(=O)N2CCC[C@H]2COCOC[C@@H]2CCCN2S(=O)(=O)c2ccc(CCCCCC)cc2)cc1	–
0.017	CCCCCCCCCCS(=O)(=O)N1CCC[C@H]1COCOC[C@@H]1CCCN1S(=O)(=O)CCCOc1ccc(I)cc1	IC50 [2]: > 20 µM; Activity (Bos taurus): Active; IC50 [3]: 0.04 µM
0.14	CCCCc1ccc(S(=O)(=O)N2CCC[C@H]2COCOC[C@@H]2CCCN2S(=O)(=O)c2ccc(CCCC)cc2)cc1	–
0.15	CCCCCc1ccc(S(=O)(=O)N2CCC[C@H]2COCOC[C@@H]2CCCN2S(=O)(=O)c2ccc(CCCCC)cc2)cc1	–
0.36	CCCCCCCCS(=O)(=O)N1CCC[C@H]1COCOC[C@@H]1CCCN1S(=O)(=O)CCCCCCCC	–
